Measured values: the METLIN SMRT retention time set (Domingo-Almenara et al. 2019)

Experiment: gradient 5% acetonitrile 3 min, to 50% in 2 min, to 85% in 15 min, held 3 min, 100 µL/min
Details: column: Zorbax Extend-C18 2.1 x 50 mm; eluents: water / acetonitrile, 0.1% formic acid
Method in brief: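 Pure standards were analyzed in mixtures of ~100 molecules using HPLC coupled to a quadrupole time-of-flight mass spectrometer, in both positive and negative ionization mode. Separation used a Zorbax Extend-C18 column (2.1 × 50 mm, 1.8 μm) at 100 μL/min, with water and acetonitrile each containing 0.1% formic acid. Dead and dwell volumes were 40 μL and 900 μL, and data were collected over 3 months. Retention time was read from computationally picked adduct peaks, each inspected manually.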

COc1ccc(-c2csc(NC(=O)CCc3c(C)[nH]c(=O)[nH]c3=O)n2)cc1
RP-LC retention time: 646 s

CCOC(=O)c1c(C)oc2nc(C)nc(NCc3ccccn3)c12
RP-LC retention time: 683 s

Cc1ccc(CNC(=O)c2ccc3c(c2)CCN3C(=O)C2CC2)cc1
RP-LC retention time: 824 s

COCc1cc(=O)n(Cc2cccc(F)c2)c(N2CCCC2)n1
RP-LC retention time: 806 s

CO[C@H]1CN(C(C)C)[C@H]1C1CCN(C(=O)C(C)C)CC1
RP-LC retention time: 557 s

CCCn1c(=O)sc2cc(S(=O)(=O)N3CCC(C(=O)Nc4ccc(C)c(F)c4)CC3)ccc21
RP-LC retention time: 1060 s

CCN1CCN(CCCNC(=O)C(C)n2c(=O)c(C(F)(F)F)nc3cc(C)c(C)cc32)CC1 (stereo not given)
RP-LC retention time: 649 s

CC1=C(c2ccc(F)cc2)S(=O)(=O)N=C1N1CCCN(C(=O)Cc2ccsc2)CC1
RP-LC retention time: 812 s

CCOc1cccc(CNC(=O)C2CCc3nc(N4CCOCC4)ncc3C2)c1 (stereo not given)
RP-LC retention time: 743 s

O=C(c1ccc(OCC2CCCN(C(=O)C3CCCC3)C2)cc1)N1CCCC1 (stereo not given)
RP-LC retention time: 846 s

COc1cccc(COc2cn(C)c(C(=O)Nc3ccc4c(c3)OCCO4)cc2=O)c1
RP-LC retention time: 675 s

O=C(C1CCN(c2nnc(-c3ccccc3)o2)CC1)N1CCCCC1
RP-LC retention time: 760 s

Cn1ncc(N2CCC(C(=O)NCc3nc4ccccc4n3C)C2)cc1=O (stereo not given)
RP-LC retention time: 569 s

Cc1cnc(-n2nnc(C(=O)N3CCOCC3)c2C)s1
RP-LC retention time: 658 s

O=C(Nc1ccccc1-n1cccc1)c1cn(-c2ccc(F)cc2)nn1
RP-LC retention time: 845 s

COCc1nnc(C(=O)Nc2cccc(C(=O)NCCc3c[nH]c4ccc(Cl)cc34)c2)s1
RP-LC retention time: 896 s

O=C(Cc1c(F)cccc1Cl)NC1CCN(c2cc(-c3ccccc3)[nH]n2)C1 (stereo not given)
RP-LC retention time: 638 s

CCCN1C(=O)COc2ccc(-c3csc(NC(=O)c4ccccc4C)n3)cc21
RP-LC retention time: 1060 s

CCOC(=O)CNC(=O)N1CCc2cc(-c3ccc(C(=O)N4CCOCC4)cc3)ccc21
RP-LC retention time: 723 s

O=C(Nc1cnn(-c2ncncc2N2CCCC2)c1)c1ccc(C(F)(F)F)cc1
RP-LC retention time: 779 s

CCOc1ccccc1NC(=O)C(=O)NCc1cc(C)oc1C
RP-LC retention time: 697 s

O=C(Cn1ccn2nc(-c3ccccc3)c(CO)c2c1=O)Nc1cccc(Cl)c1
RP-LC retention time: 856 s

Cc1cccc(OCc2nc(-c3cccc(-c4csc(C)n4)c3)no2)c1
RP-LC retention time: 1250 s

COCC(C)(O)CNS(=O)(=O)c1ccc(F)cc1C (stereo not given)
RP-LC retention time: 674 s

C=CCN1C(=O)C(C)(C)COc2cc(NS(=O)(=O)c3ccc(Cl)s3)ccc21
RP-LC retention time: 975 s

Cn1c(CC2CCN(S(=O)(=O)Cc3cccc(Cl)c3)C2)nc2cccnc21 (stereo not given)
RP-LC retention time: 656 s

O=C(NCCOc1cccc2cccnc12)c1cccc(-n2cnnn2)c1
RP-LC retention time: 574 s

CC(C)NC(=O)N1CCCC1c1noc(COc2ccc(F)cc2)n1 (stereo not given)
RP-LC retention time: 799 s

COCCN1C(=O)[C@H]2CN(Cc3ccc(OC(F)(F)F)cc3)C[C@H]2C1=O
RP-LC retention time: 694 s

CCOC(=O)c1nc(NC(C)c2ccccc2)c2ccccc2n1 (stereo not given)
RP-LC retention time: 794 s

CCn1nc(C)n2cc(S(=O)(=O)NCc3cc(F)cc(F)c3)cc2c1=O
RP-LC retention time: 886 s

Cc1ccccc1NC(=O)NCCc1cn(CC(C)C)c2ncccc12
RP-LC retention time: 808 s

OC(CN1CCN(c2ccc(F)cc2)CC1)c1ccc2c(c1)OCO2 (stereo not given)
RP-LC retention time: 635 s

Cc1ccc(-c2noc(-c3ccc(N4CCN(c5cc(C)ccc5C)CC4)nc3)n2)cc1
RP-LC retention time: 749 s

O=C(Cn1ncc2c(N3CCN(c4ccccn4)CC3)ncnc21)Nc1ccc(Cl)cn1
RP-LC retention time: 616 s

CNC(=O)C1CCCN(c2nc3ncn(CC(=O)Nc4ccc5c(c4)CCC5)c(=O)c3s2)C1 (stereo not given)
RP-LC retention time: 688 s

Cc1ccnc(C(=O)Nc2cccc(Cl)c2Cl)n1
RP-LC retention time: 866 s

Cc1cc(N2CCN(C(=O)C3CCCCC3)CC2)nc(N2CCCC2)n1
RP-LC retention time: 672 s

CC1CCN(Cc2csc(N3CCN(C(=O)CSc4ccccc4)CC3)n2)CC1
RP-LC retention time: 1130 s

O=C(O)/C=C/c1ccc(Cn2ccnc2)cc1
RP-LC retention time: 612 s

O=C(Cn1ncc2c(N3CCN(c4ccccn4)CC3)ncnc21)Nc1cc(F)ccc1F
RP-LC retention time: 615 s

COc1ccc(C2CC(=O)c3c([nH]c(C(=O)OC4CCCC4C)c3C)C2)cc1OC (stereo not given)
RP-LC retention time: 1050 s

CC(=O)Nc1ccc(NC(=O)c2ccc3nc(-c4ccccc4)cn3c2)cc1
RP-LC retention time: 612 s

Cc1ccc(S(=O)(=O)N2CCC(C(=O)NCc3csc(-c4ccccc4)n3)CC2)cc1C
RP-LC retention time: 989 s

O=C(Cc1csc(-n2cccc2)n1)N1CCC(c2nc3ccccc3[nH]2)CC1
RP-LC retention time: 558 s

CCOC(=O)c1nnc2c(-c3ccccc3OC)c(C)nn2c1C
RP-LC retention time: 924 s

CCOC(=O)C1CCN(C(=O)C2COC3(CCCCC3)N2C(=O)c2ccccc2)CC1 (stereo not given)
RP-LC retention time: 808 s

O=C(Nc1ccccc1F)N1CCCC1c1nc(-c2ccccc2)no1 (stereo not given)
RP-LC retention time: 940 s

COc1ccccc1N1CCN(c2cc(SCC(=O)Nc3ccc(Cl)cc3)ncn2)CC1
RP-LC retention time: 1080 s

Cc1ccc(N2CC(c3noc(-c4ccccn4)n3)CC2=O)cc1 (stereo not given)
RP-LC retention time: 797 s

CCN1C(=O)C2(c3ccccc31)c1[nH]c3ccccc3c1CCN2C(C)=O (stereo not given)
RP-LC retention time: 779 s

CN(C)S(=O)(=O)c1ccc(C(=O)N2CCC(c3nnc(C(F)(F)F)o3)CC2)cc1
RP-LC retention time: 747 s

Cc1cnc(-c2ccccc2)n1C1CN(S(=O)(=O)c2cccc(F)c2)C1
RP-LC retention time: 670 s

Cc1nc(-c2noc(-c3ccc(F)cc3)n2)cn1CC(=O)NC1CCc2ccccc21 (stereo not given)
RP-LC retention time: 874 s

O=C(Nc1nc2c(s1)CN(S(=O)(=O)c1ccccc1)CC2)c1ccoc1
RP-LC retention time: 823 s

CCN(CC)S(=O)(=O)c1ccc2c(c1)CC(C(=O)N1CCC(C)CC1)N2C(C)=O (stereo not given)
RP-LC retention time: 849 s

CCOC(=O)c1c(S(=O)(=O)N2CCC(C(=O)Nc3cccc(CC)c3)CC2)c(C)n(CC)c1C
RP-LC retention time: 984 s

CC(C)CN1C(=O)c2cccn2CC1C(=O)NCc1cccs1 (stereo not given)
RP-LC retention time: 754 s

CC1CCN(c2ncc3c(n2)CCC(C(=O)NCc2ccc(OC(C)C)cc2)C3)CC1 (stereo not given)
RP-LC retention time: 908 s

COc1cc(OC)c(NC(=O)C2CCN(C(=O)C3Sc4ccccc4NC3=O)CC2)cc1Cl (stereo not given)
RP-LC retention time: 810 s

Cc1ncoc1C(=O)NCC1Cn2cccc2C(=O)N1C (stereo not given)
RP-LC retention time: 583 s

O=C(NC1CCN(Cc2ccccc2)CC1)C1CCCN(c2ncc(-c3ccccc3)cn2)C1 (stereo not given)
RP-LC retention time: 720 s

COc1cc(OC)c(NC(=O)NC2CCN(c3ccc(F)c(C)c3)C2=O)cc1Cl (stereo not given)
RP-LC retention time: 888 s

Cc1ccc(F)cc1NS(=O)(=O)c1c[nH]c2ncccc12
RP-LC retention time: 747 s

COc1ccc(CNC(=O)C2CCN(c3cnc4nccnc4c3)CC2)cc1OC
RP-LC retention time: 633 s

COc1ccc(Cc2nc3nccc(-c4cccnc4)n3n2)cc1
RP-LC retention time: 692 s

CC(=O)Nc1ccc(SCc2ccccn2)nn1
RP-LC retention time: 527 s

COC(=O)c1cccc(NC(=O)CSc2nccc(N3CCN(c4ccccc4OC)CC3)n2)c1
RP-LC retention time: 695 s

CCNC(=O)c1cn(-c2ccc(NC(=O)CC(C)C)cn2)cn1
RP-LC retention time: 658 s

Cc1cc(C)cc(-n2ccn3c(CCCC(=O)N4CCN(c5ccccn5)CC4)nnc3c2=O)c1
RP-LC retention time: 616 s

CC(NC(=O)Cn1c(=O)c(=O)n(C)c2ncccc21)c1ccccc1 (stereo not given)
RP-LC retention time: 677 s

Cc1ccc(N2C=C(C(=O)N3CCOCC3)S(=O)(=O)c3ccc(Cl)cc32)cc1Cl
RP-LC retention time: 970 s

CC(C)CCNC(=O)Cn1ccn2nc(-c3ccccc3)c(CO)c2c1=O
RP-LC retention time: 758 s

CCCNC(=O)CCc1ccc2nc(-c3ccccc3)[nH]c2c1
RP-LC retention time: 593 s

COc1cc(=O)n2c(c1C(=O)NC1CCc3ccccc31)CCCC2 (stereo not given)
RP-LC retention time: 686 s

CCn1ccc2c(cc(C(=O)Nc3ccc(F)cc3C)n2C)c1=O
RP-LC retention time: 726 s

CCCCOc1ccc(C(=O)N2CCN(c3cc(C)nc(N4CCCCC4)n3)CC2)cc1
RP-LC retention time: 816 s

CCCN1CCn2cc(S(=O)(=O)Nc3cccc(C)c3C)cc2C1=O
RP-LC retention time: 758 s

CCOc1ccc2cccc(NC(=O)c3cc(C)oc3C)c2n1
RP-LC retention time: 1310 s

CCOC(=O)c1csc(NC(=O)c2ccc3c(c2)OCCO3)n1
RP-LC retention time: 782 s

Cc1ccc(CN2C(=O)Cn3cccc3C2C(=O)NC2CCCC2)cc1 (stereo not given)
RP-LC retention time: 892 s

Fc1cccc(CN2CC[C@@H]3CN(Cc4ccccc4)[C@@H]3C2)c1
RP-LC retention time: 624 s

CCc1ccc(CNC(=O)c2csc(C(=O)NC)n2)cc1
RP-LC retention time: 808 s

CN(C)C(=O)c1cc2c(s1)CCC(C(=O)NC1CCN(Cc3ccccc3)CC1)C2 (stereo not given)
RP-LC retention time: 598 s

COc1ccc(-c2nc3ncccn3c2NCc2ccc(C)cc2)cc1OC
RP-LC retention time: 709 s

O=C(Cc1cccnc1)N1CCCn2nc(-c3ccc(F)cc3)cc2C1
RP-LC retention time: 537 s

O=C(NCc1ccccn1)c1nnn(Cc2ccc(Cl)cc2)c1-n1cccc1
RP-LC retention time: 760 s

C=C(C)Cn1c(CNC(=O)c2ccccc2)nc2ccccc21
RP-LC retention time: 600 s

O=C(CCCc1nc(-c2cccnc2)no1)Nc1nc(-c2ccccc2)cs1
RP-LC retention time: 865 s

Cc1cc(C)cc(Nc2nc(C)cc3nn(CC(=O)N(C)c4ccccc4)c(=O)n23)c1
RP-LC retention time: 1160 s
